Test [1] concerns the target T1, GSK3β (Homo sapiens, UniProt P49841).
T1 construct: gene GSK3B
The experiment in a line: Z'-LYTE kinase assay, […] ATP, […] min preincubation (IC50 […] without preincubation). It counts as biochemical.

For test [2], the target named is T1, GSK3β. The test is described as above. It counts as biochemical. This is another data set of the same source.

Read-outs that look alike come from different tables or passages of the source.

T1 sequence (P49841 whole entry): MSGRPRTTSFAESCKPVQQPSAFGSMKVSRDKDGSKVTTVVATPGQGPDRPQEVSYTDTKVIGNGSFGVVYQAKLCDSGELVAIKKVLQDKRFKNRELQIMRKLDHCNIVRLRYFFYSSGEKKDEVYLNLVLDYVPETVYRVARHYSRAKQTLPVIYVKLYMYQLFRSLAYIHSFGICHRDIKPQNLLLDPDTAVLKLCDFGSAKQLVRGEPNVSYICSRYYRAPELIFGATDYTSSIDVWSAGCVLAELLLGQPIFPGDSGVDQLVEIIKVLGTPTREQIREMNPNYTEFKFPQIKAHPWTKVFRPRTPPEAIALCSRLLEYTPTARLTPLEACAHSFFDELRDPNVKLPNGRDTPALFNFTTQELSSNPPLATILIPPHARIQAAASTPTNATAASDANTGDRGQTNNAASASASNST

The molecule `C=CC1=C(C(=O)O)N2C(=O)[C@@H](NC(=O)/C(=N\OCC(=O)O)c3csc(N)n3)[C@H]2SC1` [A, cefixime] displayed an IC50 against GSK3β [1] of 550 nM.

In turn, `CO/N=C(\C(=O)N[C@@H]1C(=O)N2C(C(=O)O)=C(CSc3nc(=O)c(=O)[nH]n3C)CS[C@H]12)c1csc(N)n1` [B, ceftriaxone] returned an IC50 on GSK3β [2] of 780 nM.

For the origin of these results see article PMC10087387, “Molecular docking, molecular dynamics simulations and in vitro screening reveal cefixime and ceftriaxone as GSK3β covalent inhibitors” (RSC Advances, 2023).
